pEC50: −log10 of the molar value.

The term pEC50 denotes −log10 of the EC50, conventionally taken in molar units. A high value points to a low EC50.

For the first assay, the target named is T1, Bcl-2-related protein A1 (Homo sapiens, UniProt Q16548).
T1 sequence (Q16548 whole entry): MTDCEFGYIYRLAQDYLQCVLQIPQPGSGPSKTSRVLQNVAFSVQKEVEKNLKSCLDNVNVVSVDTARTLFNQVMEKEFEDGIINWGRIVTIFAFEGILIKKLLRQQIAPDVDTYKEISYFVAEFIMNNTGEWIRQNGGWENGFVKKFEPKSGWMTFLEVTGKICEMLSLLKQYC
Briefly: Bfl-1/Bim complex disruptors – biochemical, multiplexed, bead-based flow cytometry, dose response (AID 1320). The following applies: inactive by the depositor's call; pH 7.4; 4 °C.
The compound `COC(=O)CCC(=O)Nc1sc(Cc2ccccc2)c(C)c1C(N)=O` [MLS000708819] showed a pEC50 of 6.01.
The same measure, in the same setting: the figure for `N#Cc1cccc(/N=c2/ssnc2Cl)c1` [3-[(4-chloro-5-dithiazolylidene)amino]benzonitrile] is 4.84; for `CCN(CC)c1ccc(NC(=O)c2ccccc2F)cc1S(=O)(=O)Nc1ccccc1OC` [SMR000241522] it is 4.91; for `CCOc1cccc(CNc2ccc(O)cc2)c1OCc1ccccc1Cl` [MLS000580486] it is 5.79.
`COc1ccccc1-n1c(-c2ccccc2)c[nH]c1=S` [MLS001007615] showed a pEC50 of 6.21.
On the same count and under the same terms, the figure for `Nc1c(C(=O)NCc2ccco2)sc2nc3c(cc12)C(=O)CCC3` [SMR000072940] is 4.24; for `c1ccc(C2=Nc3cccc4cccc(c34)N2)cc1` it is 4.58.
Still for that read-out and setting: in the case of `Cc1ccc(-c2nc3c(c(=O)[nH]c(=O)n3Cc3ccccc3)n2Cc2ccccc2)o1` it was 5.07; in that of `CCN(CC)c1ccc(NC(=O)c2ccccc2Br)cc1S(=O)(=O)Nc1ccccc1OC`, 5.27; in that of `COc1ccc(C2=Nc3cccc4cccc(c34)N2)cc1` [MLS000551954], 5.19.
The same measure, in the same setting: the figure for `O=c1c2c(-c3ccccc3)csc2nc2c3ccccc3c(NCCN3CCOCC3)nn12` [SMR000352519] is 4.52; for `Cc1ccc(C)n1-c1ccc(N2CCOCC2)cc1` [MLS000111760] it is 4.94.
For the compound `COc1ccc(-n2c(NC(=O)c3ccco3)c(C#N)c3nc4ccccc4nc32)cc1` [MLS000079925], the pEC50 was 4.79.
Same read-out and setting: the figure for `CC(C)C(=O)NC(c1ccccc1)c1cc([N+](=O)[O-])c2cccnc2c1O` (centres undefined) [N-[(8-hydroxy-5-nitro-7-quinolinyl)-phenylmethyl]-2-methylpropanamide] is 4.58.

The same assay, now with this note: pH 7.4; 4 °C.
The compound `C#CCn1cc(C=C2C(=O)c3ccccc3C2=O)c2ccccc21` [SMR000196125] had a pEC50 of 5.02.
On the same count and under the same terms, the figure for `O=C(NC1=C(NC2CCS(=O)(=O)C2)C(=O)c2ccccc2C1=O)c1ccccc1` (centres undefined) [N-[3-[(1,1-dioxo-3-thiolanyl)amino]-1,4-dioxo-2-naphthalenyl]benzamide] is 5.18; for `CN(CCO)c1cc(Sc2nc3ccccc3s2)c2nonc2c1[N+](=O)[O-]` [MLS000520995] it is 5.83.
Same read-out and setting: in the case of `Cc1ccc(C)c(/C=C/C(=O)c2ccccc(=O)c2O)c1` it was 5.06.
The same measure, in the same setting: the figure for `COc1cc(/N=c2/ssnc2Cl)cc(OC)c1OC` [SMR000025034] is 5.44.
Take `CCN(CC)S(=O)(=O)c1cccc(C(=O)NN=Cc2ccc(O)c(O)c2O)c1`: the pEC50 is 5.19.
Still for that read-out and setting: the figure for `CCN=c1scc(C)n1N=Cc1ccc(O)c(O)c1O` is 4.71; for `CNC(CC(=O)c1ccc([N+](=O)[O-])cc1)C(Cl)(Cl)Cl` (centres undefined) [4,4,4-Trichloro-3-methylamino-1-(4-nitro-phenyl)-butan-1-one] it is 6.33; for `CC(=NNC(=O)c1cc(O)c(O)c(O)c1)c1ccc([N+](=O)[O-])cc1` [SMR000312589] it is 5.17.
Same read-out and setting: the figure for `CCOC(=O)CSC1=NC(=O)/C(=C/c2ccc(OC)cc2)S1` [2-[[(5Z)-5-[(4-methoxyphenyl)methylidene]-4-oxo-2-thiazolyl]thio]acetic acid ethyl ester] is 5.95.
Turning to `N#Cc1cc(-c2ccccc2)nn1-c1ccccc1`, the pEC50 is 5.69.
Still for that read-out and setting: the figure for `Nc1c(C(=O)NC2CC2)sc2nc3c(c(-c4ccco4)c12)CC/C3=C/c1ccco1` [SMR000259554] is 5.96; for `Cc1ccc(-c2cc(-c3ccc(C)o3)nc(N)c2C#N)cc1` [2-amino-6-(5-methylfuran-2-yl)-4-(4-methylphenyl)pyridine-3-carbonitrile] it is 5.65; for `O=C(Nc1ccc2nc(-c3ccco3)c(-c3ccco3)nc2c1)N1CCN(c2ccccn2)CC1` it is 5.23.
In the case of `O=[N+]([O-])c1ccc(N2CCN(c3ccc(O)cc3)CC2)c(Cl)c1` [MLS000374649], the pEC50 is 5.75.

(Values after BindingDB's records for doi:10.7270/Q2CN728N (Nmmlsc, 2008).)
